Reference: ChEMBL document CHEMBL1201862, “PubChem BioAssay data set” (2004)
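Results reflect a 48-hour exposure of cells in 96-well plates to compound at five concentrations. Abbreviation: GI50, concentration required for 50% inhibition of growth.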 Activity calls are given as the source filed them. Cut-off read from the data, not from the text of the source: active = GI50 up to about 1.1 µM and inactive = higher.

Assays:
Assay in all cases: inhibition of tumour cell growth, NCI panel, 48 h
[1] = test system: A549
[2] = test system: KM12
[3] = test system: UACC-62
[4] = test system: EKVX
[5] = test system: SK-MEL-2
[6] = test system: PC-3
[7] = test system: HCC 2998
[8] = test system: A498
[9] = test system: SK-MEL-5
[10] = test system: HOP-92
[11] = test system: K562
[12] = test system: MDA-MB-231
[13] = test system: RPMI-8226
[14] = test system: HT-29
[15] = test system: BT-549
[16] = test system: RXF 393
[17] = test system: DU-145
[18] = test system: UO-31
[19] = test system: NCI-H460
[20] = test system: OVCAR-4

Row | Structure (SMILES) | GI50 [1] | GI50 [2] | GI50 [3] | GI50 [4] | GI50 [5] | GI50 [6] | GI50 [7] | GI50 [8] | GI50 [9] | GI50 [10] | GI50 [11] | GI50 [12] | GI50 [13] | GI50 [14] | GI50 [15] | GI50 [16] | GI50 [17] | GI50 [18] | GI50 [19] | GI50 [20]
1 | COC(C(O)CO)C(O)C(O)C(=O)NNc1ccccc1 (stereo not given) | > 100 µM (inactive) | 23.6 µM (inactive) | 5.33 µM (inactive) | 21.7 µM (inactive) | 38.9 µM (inactive) | > 100 µM (inactive) | > 100 µM (inactive) | > 100 µM (inactive) | 37.2 µM (inactive) | > 100 µM (inactive) | 4.05 µM (inactive) | > 100 µM (inactive) | 47.5 µM (inactive) | > 100 µM (inactive) | > 100 µM (inactive) | > 100 µM (inactive) | > 100 µM (inactive) | > 100 µM (inactive) | 9.46 µM (inactive) | 
2 | Cc1c2cnccc2c(C)c2c1c1ccccc1n2CCOC(=O)c1ccccc1 | 10.8 µM (inactive) | 12.5 µM (inactive) | 11.9 µM (inactive) | 13.3 µM (inactive) | 12.5 µM (inactive) | 28.6 µM (inactive) | 10.7 µM (inactive) | 1.75 µM (inactive) | 16.2 µM (inactive) | 27.7 µM (inactive) | 9.71 µM (inactive) | 38.9 µM (inactive) | 8.57 µM (inactive) | 16.4 µM (inactive) | 33 µM (inactive) | 9.75 µM (inactive) | 25.6 µM (inactive) | 3.1 µM (inactive) | 3.45 µM (inactive) | 16.5 µM (inactive)
3 | c1ccc(-c2nnn(CCN3CCCCC3)n2)cc1 | > 100 µM (inactive) | > 100 µM (inactive) | > 100 µM (inactive) | 96.6 µM (inactive) | > 100 µM (inactive) | > 100 µM (inactive) | > 100 µM (inactive) | > 100 µM (inactive) | > 100 µM (inactive) | > 100 µM (inactive) | > 100 µM (inactive) | > 100 µM (inactive) | > 100 µM (inactive) | > 100 µM (inactive) | > 100 µM (inactive) | > 100 µM (inactive) | > 100 µM (inactive) | > 100 µM (inactive) | > 100 µM (inactive) | > 100 µM (inactive)
4 | CSCCCNC(=O)c1csc([C@@H](CSC)NC(=O)CCNC(=O)[C@@H](NC(=O)OCC(Br)(Br)Br)C(C)O)n1 (stereo not given in full) | > 100 µM (inactive) | > 100 µM (inactive) | > 100 µM (inactive) | 75.5 µM (inactive) | > 100 µM (inactive) | > 100 µM (inactive) | > 100 µM (inactive) | > 100 µM (inactive) | > 100 µM (inactive) | > 100 µM (inactive) | > 100 µM (inactive) | > 100 µM (inactive) |  | > 100 µM (inactive) | > 100 µM (inactive) | > 100 µM (inactive) | > 100 µM (inactive) | > 100 µM (inactive) | > 100 µM (inactive) | > 100 µM (inactive)
5 | CC(=O)Oc1ccc2c(-c3ccccc3)c(Oc3ccc(Cl)cc3)c(=O)oc2c1 | 13.7 µM (inactive) | 14.4 µM (inactive) |  | 15.6 µM (inactive) |  | 23.1 µM (inactive) | 7.55 µM (inactive) | 17 µM (inactive) | 18 µM (inactive) | 10.4 µM (inactive) | 14.8 µM (inactive) | 18.7 µM (inactive) | 47.1 µM (inactive) | 20.8 µM (inactive) | 18.8 µM (inactive) | 18 µM (inactive) | 14.4 µM (inactive) | 14.8 µM (inactive) | 14.7 µM (inactive) | 15.2 µM (inactive)
6 | Cc1ccc(/C=C2\CCS(=O)(=O)c3ccccc3C2=O)cc1 | 35.6 µM (inactive) | 15.5 µM (inactive) | 17.3 µM (inactive) | 17.6 µM (inactive) | 21.9 µM (inactive) | 20.4 µM (inactive) | 14.7 µM (inactive) | 21.2 µM (inactive) |  | 15 µM (inactive) | > 100 µM (inactive) | 16.9 µM (inactive) | 31.4 µM (inactive) | 17 µM (inactive) | 17.5 µM (inactive) | 22.7 µM (inactive) | 14.2 µM (inactive) | 12.6 µM (inactive) | 14.8 µM (inactive) | 15 µM (inactive)
7 | C=CC(CCc1ccc(C(=O)OCC)cc1)c1c(N)nc(N)[nH]c1=O (stereo not given) | > 100 µM (inactive) | > 100 µM (inactive) | > 100 µM (inactive) |  | > 100 µM (inactive) | 52.6 µM (inactive) | > 100 µM (inactive) | 21.2 µM (inactive) | 23.5 µM (inactive) | 12.6 µM (inactive) | > 100 µM (inactive) | > 100 µM (inactive) | 44.8 µM (inactive) | 72.8 µM (inactive) | > 100 µM (inactive) | > 100 µM (inactive) | > 100 µM (inactive) | 43.7 µM (inactive) | > 100 µM (inactive) | 27.2 µM (inactive)
8 | CCc1c(N=[N+]=[N-])c2ccccc2oc1=O | > 100 µM (inactive) | > 100 µM (inactive) | > 100 µM (inactive) | 36.3 µM (inactive) |  | > 100 µM (inactive) | > 100 µM (inactive) | > 100 µM (inactive) |  | > 100 µM (inactive) | > 100 µM (inactive) | > 100 µM (inactive) | > 100 µM (inactive) | > 100 µM (inactive) | > 100 µM (inactive) | > 100 µM (inactive) | > 100 µM (inactive) | > 100 µM (inactive) | > 100 µM (inactive) | > 100 µM (inactive)
9 | CN(C(=O)Cc1ccc(Cl)c(Cl)c1)[C@@H]1CCCC[C@H]1[N+]1(C)CC=CC1 | > 100 µM (inactive) | > 100 µM (inactive) | > 100 µM (inactive) | > 100 µM (inactive) | > 100 µM (inactive) | > 100 µM (inactive) | > 100 µM (inactive) | > 100 µM (inactive) | > 100 µM (inactive) | > 100 µM (inactive) | > 100 µM (inactive) | > 100 µM (inactive) | > 100 µM (inactive) | > 100 µM (inactive) | > 100 µM (inactive) | > 100 µM (inactive) | > 100 µM (inactive) | > 100 µM (inactive) |  | > 100 µM (inactive)
10 | NC(=O)CO/N=C1/C(=C2/C(=O)Nc3ccccc32)Nc2ccccc21 | 1.96 µM (inactive) | 0.247 µM (active) | 5.87 µM (inactive) | > 100 µM (inactive) | 2.4 µM (inactive) | > 100 µM (inactive) |  | > 100 µM (inactive) | 1.49 µM (inactive) | > 100 µM (inactive) | 40 µM (inactive) | > 100 µM (inactive) | 17.9 µM (inactive) | 2.12 µM (inactive) | 12.4 µM (inactive) | 0.491 µM (active) | 1.67 µM (inactive) | 1.77 µM (inactive) | 1.11 µM (active) | > 100 µM (inactive)
11 | NC(=S)N/N=C1\CCCC1C(O)(C(F)(F)Cl)C(F)(F)Cl (stereo not given) | > 10 µM (inactive) | > 10 µM (inactive) | 8.63 µM (inactive) | > 10 µM (inactive) | > 10 µM (inactive) | > 10 µM (inactive) | > 10 µM (inactive) | > 10 µM (inactive) | 2.01 µM (inactive) | > 10 µM (inactive) | > 10 µM (inactive) | > 10 µM (inactive) | > 10 µM (inactive) | > 10 µM (inactive) | > 10 µM (inactive) | > 10 µM (inactive) | > 10 µM (inactive) |  | > 10 µM (inactive) | > 10 µM (inactive)
12 | Cc1cccc(NC(=S)Nc2cccc(Cl)c2)n1 | > 100 µM (inactive) | > 100 µM (inactive) | > 75.2 µM (inactive) | > 100 µM (inactive) | > 72.8 µM (inactive) | > 100 µM (inactive) | > 100 µM (inactive) | > 70.3 µM (inactive) | > 100 µM (inactive) |  | > 100 µM (inactive) | > 100 µM (inactive) | > 100 µM (inactive) | > 100 µM (inactive) | > 100 µM (inactive) | 29.7 µM (inactive) | > 100 µM (inactive) | > 100 µM (inactive) | > 100 µM (inactive) | > 100 µM (inactive)
13 | COc1ccc(NC(=O)CC(=O)N2N=C(c3ccccc3)C(/N=N/c3ccc(S(=O)(=O)CCOS(=O)(=O)O)cc3)C2=O)cc1 (stereo not given) | > 100 µM (inactive) | > 100 µM (inactive) | > 100 µM (inactive) | > 100 µM (inactive) | > 100 µM (inactive) | > 100 µM (inactive) | > 100 µM (inactive) | > 100 µM (inactive) | > 100 µM (inactive) | > 100 µM (inactive) | > 100 µM (inactive) | > 100 µM (inactive) | > 100 µM (inactive) | > 100 µM (inactive) | > 100 µM (inactive) | > 100 µM (inactive) | > 100 µM (inactive) | > 100 µM (inactive) | > 100 µM (inactive) | 
14 | Cn1c(CCC2(C)Cc3ccccc3C(=O)O2)cc2ccccc2c1=O (stereo not given) | 31.2 µM (inactive) | 4.66 µM (inactive) | > 10 µM (inactive) |  | 24.2 µM (inactive) | 17.7 µM (inactive) | 34.4 µM (inactive) | 25.1 µM (inactive) | 17.2 µM (inactive) | 57.5 µM (inactive) | 2.96 µM (inactive) | 45.1 µM (inactive) | 17.3 µM (inactive) |  | 21.8 µM (inactive) | 10.2 µM (inactive) | 23.7 µM (inactive) | 15.7 µM (inactive) | 24.8 µM (inactive) | 36 µM (inactive)
